From the supplement of paper PMC4862054

Assays:
Settings in all cases: 72 h
BT-549 [1] = tested on: BT-549
Method: (§1)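 Drug sensitivity and resistance testing (DSRT) of breast cancer cell lines in 384-well plates, 5 concentrations in 10-fold dilutions over a compound-specific 10,000-fold range. After 72 h, cytotoxicity was read by CellTox Green fluorescence and viability by CellTiter-Glo luminescence (multiplexed), normalised to DMSO and benzethonium chloride controls. EC50 is the inflection point of the fitted dose-response curve (bottom asymptote free, so it can be relative for partial curves) and is censored at the highest tested concentration. Rows with DSS 0 (no meaningful response) were excluded.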

Hs578T [2] = tested on: Hs578T
Method: as §1

MDA-MB-436 [3] = tested on: MDA-MB-436
Method: as §1

HCC1599 [4] = tested on: HCC1599
Method: as §1

BT-474 [5] = tested on: BT-474
Method: as §1

MDA-MB-231 [6] = tested on: MDA-MB-231
Method: as §1

HDQ-P1 [7] = tested on: HDQ-P1
Outline: (§2)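 The plates used were 384-well plates holding compound at 5 concentrations in 10-fold steps across a compound-specific 10,000-fold range, into which breast cancer cell lines were seeded in 20 µl suspension. Following 72 h incubation, CellTox Green fluorescence was read at 485/520 nm, and CellTiter-Glo luminescence was read after 10 min at room temperature. Normalisation on each plate used 0.1 % DMSO and a positive kill control. Dose-response curves gave the EC50, which was censored at the top concentration.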

MDA-MB-453 [8] = tested on: MDA-MB-453
Outline: as §2

HCC1937 [9] = tested on: HCC1937
Outline: as §2

HCC1599 [10] = tested on: HCC1599; remark: listed apart in the source
Outline: as §2

CAL-85-1 = tested on: CAL-85-1
Outline: as §2

BT-549 [11] = tested on: BT-549; remark: listed apart in the source
Outline: (§3)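 Breast cancer cell lines in 20 µl suspension were seeded onto 384-well plates that already held compound dissolved in 5 µl medium and were incubated for 72 h. Viability was measured by adding 2.5 µl CellTiter-Blue for 2 h at 37 °C and reading fluorescence at 560/590 nm. Each plate was normalised to vehicle and a positive kill control and checked by Z'-factor. EC50 was taken from a fitted percent-inhibition dose-response curve, censored at the highest concentration, and rows with a drug sensitivity score of zero were removed.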

HCC1143 [12] = tested on: HCC1143
Outline: as §3

MDA-MB-436 [13] = tested on: MDA-MB-436; remark: listed apart in the source
Outline: as §3

HCC1937 [14] = tested on: HCC1937; remark: listed apart in the source
Outline: as §3

HCC1599 [15] = tested on: HCC1599; remark: listed apart in the source
Outline: as §3

SK-BR-3 = tested on: SK-BR-3
Outline: as §3

MFM-223 [16] = tested on: MFM-223
Outline: as §3

CAL-120 [17] = tested on: CAL-120
Outline: as §3

HDQ-P1 [18] = tested on: HDQ-P1; remark: listed apart in the source
Method: as §1

CAL-148 [19] = tested on: CAL-148
Method: as §1

HCC1143 [20] = tested on: HCC1143; remark: listed apart in the source
Method: as §1

MDA-MB-468 [21] = tested on: MDA-MB-468
Method: as §1

HCC1937 [22] = tested on: HCC1937; remark: listed apart in the source
Method: as §1

CAL-51 = tested on: CAL-51
Method: as §1

CAL-120 [23] = tested on: CAL-120; remark: listed apart in the source
Method: as §1

CAL-148 [24] = tested on: CAL-148; remark: listed apart in the source
Outline: as §2

MDA-MB-468 [25] = tested on: MDA-MB-468; remark: listed apart in the source
Outline: as §3

Hs578T [26] = tested on: Hs578T; remark: listed apart in the source
Outline: as §3

BT-474 [27] = tested on: BT-474; remark: listed apart in the source
Outline: as §3

MDA-MB-231 [28] = tested on: MDA-MB-231; remark: listed apart in the source
Outline: as §3

MFM-223 [29] = tested on: MFM-223; remark: listed apart in the source
Method: as §1

MCF-10A = tested on: MCF-10A
Method: as §1

DU-4475 = tested on: DU-4475
Method: as §1

MDA-MB-453 [30] = tested on: MDA-MB-453; remark: listed apart in the source
Method: as §1

Row | EC50, CellTiter-Glo (MDA-MB-453 [8]) [nM] | EC50, CellTiter-Glo (HCC1937 [9]) [nM] | EC50, CellTiter-Glo (HCC1599 [10]) [nM] | EC50, CellTiter-Blue viability (BT-549 [11]) [nM] | EC50, CellTiter-Blue viability (HCC1143 [12]) [nM] | EC50, CellTiter-Blue viability (MDA-MB-436 [13]) [nM] | EC50, CellTiter-Blue viability (HCC1937 [14]) [nM] | EC50, CellTiter-Blue viability (HCC1599 [15]) [nM] | EC50, CellTiter-Blue viability (SK-BR-3) [nM] | EC50, CellTiter-Blue viability (MDA-MB-468 [25]) [nM] | EC50, CellTiter-Blue viability (BT-474 [27]) [nM] | EC50, CellTiter-Blue viability (MDA-MB-231 [28]) [nM] | SMILES | EC50, CellTox Green (BT-549 [1]) [nM] | EC50, CellTox Green (Hs578T [2]) [nM] | EC50, CellTox Green (MDA-MB-436 [3]) [nM] | EC50, CellTox Green (HCC1599 [4]) [nM] | EC50, CellTox Green (BT-474 [5]) [nM] | EC50, CellTox Green (MDA-MB-231 [6]) [nM] | EC50, CellTiter-Glo (HDQ-P1 [7]) [nM] | EC50, CellTiter-Glo (CAL-85-1) [nM] | EC50, CellTiter-Blue viability (MFM-223 [16]) [nM] | EC50, CellTiter-Blue viability (CAL-120 [17]) [nM] | EC50, CellTox Green (HDQ-P1 [18]) [nM] | EC50, CellTox Green (CAL-148 [19]) [nM] | EC50, CellTox Green (HCC1143 [20]) [nM] | EC50, CellTox Green (MDA-MB-468 [21]) [nM] | EC50, CellTox Green (HCC1937 [22]) [nM] | EC50, CellTox Green (CAL-51) [nM] | EC50, CellTox Green (CAL-120 [23]) [nM] | EC50, CellTiter-Glo (CAL-148 [24]) [nM] | EC50, CellTiter-Blue viability (Hs578T [26]) [nM] | EC50, CellTox Green (MFM-223 [29]) [nM] | EC50, CellTox Green (MCF-10A) [nM] | EC50, CellTox Green (DU-4475) [nM] | EC50, CellTox Green (MDA-MB-453 [30]) [nM]
1 | 1200 | 567 | 3020 | 2620 | 1770 | 2020 | 1960 | 873 | 1050 | 1930 | 5750 | 2740 | Nc1ccccc1NC(=O)c1ccc(CNc2nccc(-c3cccnc3)n2)cc1 [Mocetinostat] | 7700 | 629 | 1340 | 2100 | 6830 | 1720 | 5520 | 2710 | 4200 | 75.7 | 597 | 5350 | 3360 | 961 | > 10000 | 1600 | 4510 | 2270 | 2670 | – | – | – | –
2 | 508 | 3840 | – | – | – | – | – | – | – | – | – | – | CS(=O)(=O)N1CCN(Cc2cc3nc(-c4cccc5[nH]ncc45)nc(N4CCOCC4)c3s2)CC1 [Pictilisib] | – | – | – | – | 9300 | – | 657 | 997 | – | – | – | 293 | – | – | – | 2090 | – | 1350 | – | 955 | 270 | – | –
3 | – | 3070 | – | – | – | – | – | – | – | – | – | – | O=C(NC[C@H](O)CO)c1ccncc1Nc1ccc(I)cc1F [Pimasertib] | – | – | – | – | 2840 | 16.6 | 18.6 | 1090 | – | – | – | – | – | – | – | – | 783 | 1010 | – | – | – | 48.1 | –
4 | 11 | 199 | 71.3 | – | – | – | – | – | – | – | – | – | Cn1cc(CNCC2CCN(c3ncc(C(=O)NO)cn3)CC2)c2ccccc21 [Quisinostat] | – | 60.3 | – | 106 | 36 | 72.5 | 148 | 34.1 | – | – | 396 | 52.1 | 134 | 5.87 | – | 116 | 65.6 | 28.3 | – | 58.8 | – | 95.6 | > 1000
5 | 1830 | 2740 | 189 | 77.1 | 652 | 110 | 30.3 | 102 | 52 | 71.9 | – | 612 | CC[C@@]1(O)C(=O)OCc2c1cc1n(c2=O)Cc2cc3c(CN(C)C)c(O)ccc3nc2-1 [Topotecan] | – | – | 2720 | 748 | > 10000 | 369 | – | 755 | – | 79.9 | > 10000 | 55.6 | – | 2240 | 3070 | 195 | 2570 | 221 | – | – | 1880 | – | –

Row | SMILES | EC50, CellTiter-Glo (MDA-MB-453 [8]) [nM] | EC50, CellTiter-Glo (HCC1937 [9]) [nM] | EC50, CellTiter-Glo (HCC1599 [10]) [nM] | EC50, CellTiter-Blue viability (BT-549 [11]) [nM] | EC50, CellTiter-Blue viability (HCC1143 [12]) [nM] | EC50, CellTiter-Blue viability (MDA-MB-436 [13]) [nM] | EC50, CellTiter-Blue viability (HCC1937 [14]) [nM] | EC50, CellTiter-Blue viability (HCC1599 [15]) [nM] | EC50, CellTiter-Blue viability (SK-BR-3) [nM] | EC50, CellTiter-Blue viability (MDA-MB-468 [25]) [nM] | EC50, CellTiter-Blue viability (BT-474 [27]) [nM] | EC50, CellTiter-Blue viability (MDA-MB-231 [28]) [nM] | EC50, CellTox Green (BT-549 [1]) [nM] | EC50, CellTox Green (Hs578T [2]) [nM] | EC50, CellTox Green (MDA-MB-436 [3]) [nM] | EC50, CellTox Green (HCC1599 [4]) [nM] | EC50, CellTox Green (BT-474 [5]) [nM] | EC50, CellTox Green (MDA-MB-231 [6]) [nM] | EC50, CellTiter-Glo (HDQ-P1 [7]) [nM] | EC50, CellTiter-Glo (CAL-85-1) [nM] | EC50, CellTiter-Blue viability (MFM-223 [16]) [nM] | EC50, CellTiter-Blue viability (CAL-120 [17]) [nM] | EC50, CellTox Green (HDQ-P1 [18]) [nM] | EC50, CellTox Green (CAL-148 [19]) [nM] | EC50, CellTox Green (HCC1143 [20]) [nM] | EC50, CellTox Green (MDA-MB-468 [21]) [nM] | EC50, CellTox Green (HCC1937 [22]) [nM] | EC50, CellTox Green (CAL-51) [nM] | EC50, CellTox Green (CAL-120 [23]) [nM] | EC50, CellTiter-Glo (CAL-148 [24]) [nM] | EC50, CellTiter-Blue viability (Hs578T [26]) [nM] | EC50, CellTox Green (MFM-223 [29]) [nM] | EC50, CellTox Green (MCF-10A) [nM] | EC50, CellTox Green (DU-4475) [nM] | EC50, CellTox Green (MDA-MB-453 [30]) [nM]
6 | C[C@]12O[C@H](C[C@]1(O)CO)n1c3ccccc3c3c4c(c5c6ccccc6n2c5c31)CNC4=O [Lestaurtinib] | 3.03 | > 1000 | 238 | 672 | 151 | 202 | 369 | 201 | 813 | – | – | – | 1000 | 333 | 11.9 | 439 | 819 | > 1000 | 233 | 277 | 133 | 65.5 | – | – | – | – | – | – | – | – | – | – | – | – | –
